{"source": "patent US20100136094A1", "about": "“Systems for modulating inflammation” (Searete LLC, a limited liability corporation of the state …, priority 2008, published 2010)", "origin": "cited, not measured here", "key": {"[1]": {"system": "Src family kinases (Src, Lck, Yes, Fyn)", "settings": "at nanomolar concentrations"}, "Epha1": {"system": "Epha1", "settings": "at nanomolar concentrations"}, "Src family kinase": {"system": "Src family kinase", "settings": "Sanjuan et al. 2006"}, "Toll-like receptor 4": {"biological_target": "Toll-like receptor 4 (Homo sapiens, UniProt O00206)", "sequence (O00206 24-839, species assumed)": "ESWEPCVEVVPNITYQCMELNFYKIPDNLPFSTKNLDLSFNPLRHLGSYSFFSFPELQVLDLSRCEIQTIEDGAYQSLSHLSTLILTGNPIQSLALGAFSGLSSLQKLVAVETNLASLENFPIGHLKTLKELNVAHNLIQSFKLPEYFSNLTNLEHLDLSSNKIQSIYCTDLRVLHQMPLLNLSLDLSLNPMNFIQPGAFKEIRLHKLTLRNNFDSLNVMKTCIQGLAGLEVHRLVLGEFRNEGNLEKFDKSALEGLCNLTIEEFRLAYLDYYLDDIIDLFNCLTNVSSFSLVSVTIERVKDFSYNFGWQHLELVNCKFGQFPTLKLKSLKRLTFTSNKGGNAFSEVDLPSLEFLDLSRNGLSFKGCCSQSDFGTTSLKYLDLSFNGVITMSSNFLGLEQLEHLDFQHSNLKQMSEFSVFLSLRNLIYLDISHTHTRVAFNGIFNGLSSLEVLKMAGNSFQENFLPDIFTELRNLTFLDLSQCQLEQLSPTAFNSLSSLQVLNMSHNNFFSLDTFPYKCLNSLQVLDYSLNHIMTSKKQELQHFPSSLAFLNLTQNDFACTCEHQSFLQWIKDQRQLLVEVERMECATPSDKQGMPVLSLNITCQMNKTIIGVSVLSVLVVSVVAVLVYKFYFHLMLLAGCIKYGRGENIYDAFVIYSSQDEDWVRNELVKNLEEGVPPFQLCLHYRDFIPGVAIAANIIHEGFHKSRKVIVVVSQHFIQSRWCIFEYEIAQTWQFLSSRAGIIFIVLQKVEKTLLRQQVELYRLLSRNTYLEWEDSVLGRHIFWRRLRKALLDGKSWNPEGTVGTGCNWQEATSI", "settings": "Nakamura et al. 2007"}, "mice": {"system": "mice", "settings": "Nakamura et al. 2007"}, "[2]": {"system": "proteasomal activity in cultured breast cancer cells", "settings": "on binding copper, Chen et al. 2006"}, "[3]": {"settings": "400 mg infused over one hour, single agent; Looareesuwan et al. 1986"}}, "data": [{"smiles": "Cc1nc(Nc2ncc(C(=O)Nc3c(C)cccc3Cl)s2)cc(N2CCN(CCO)CC2)n1.O", "note": "[dasatinib, N-(2-chloro-6-methylphenyl)-2-[[6-[4-(2-hydroxyethyl)-1-piperazinyl]-2-methyl-4-pyrimidinyl]amino]-5-thiazolecarboxamide, monohydrate]", "values": [{"measurement": "inhibition of Src family kinases (Src, Lck, Yes, Fyn)", "setting": "[1]", "result": "inhibits"}, {"measurement": "inhibition of Epha1", "setting": "Epha1", "result": "inhibits"}]}, {"smiles": "CCN(CC)CCCC(C)Nc1ccnc2cc(Cl)ccc12", "note": "(centres unmarked) [Chloroquine]", "values": [{"measurement": "inhibition of CpG-induced Src family kinase activation, or its dependent cellular responses", "setting": "Src family kinase", "result": "does not inhibit"}]}, {"smiles": "Cl.Cl.Nc1ccccc1Oc1ccc2c(N)nsc2c1", "note": "[Example M62812, 3-amino-6-(2-aminophenoxy)-1,2-benzisothiazole dihydrochloride]", "values": [{"measurement": "inhibition of Toll-like receptor 4", "setting": "Toll-like receptor 4", "result": "inhibitor"}, {"measurement": "prevention of lethal septic shock", "setting": "mice", "result": "prevents lethal septic shock"}]}, {"smiles": "CCN(CC)C(=S)SSC(=S)N(CC)CC", "note": "[Disulfiram, 1-(diethylthiocarbamoyldisulfanyl)-N,N-diethyl-methanethioamide]", "values": [{"measurement": "inhibition of aldehyde dehydrogenase", "setting": "aldehyde dehydrogenase", "result": "inhibits aldehyde dehydrogenase without toxicity"}, {"measurement": "proteasomal activity", "setting": "[2]", "result": "inhibits proteasomal activity"}]}, {"smiles": "CCN(CC)CCCC(C)Nc1ccnc2cc(Cl)ccc12.O=P(O)(O)O.O=P(O)(O)O", "note": "(centres unmarked) [chloroquine phosphate, 7-chloro-4-[[4-(diethylamino)-1-methylbutyl]amino]quinoline phosphate (1:2)]", "values": [{"measurement": "tolerability of intravenous infusion", "setting": "[3]", "result": "without complication"}]}]}
